# According to ChEMBL document CHEMBL2401621, “Design, synthesis and antibacterial evaluation of novel AHL analogues” (2013):
# How the values were obtained:
# Format in all cases: functional
# [1] = tested on: Escherichia coli; test: Antibacterial activity against Escherichia coli after 18 hrs by broth microdilution method
# [2] = tested on: Pseudomonas aeruginosa; test: Antibacterial activity against Pseudomonas aeruginosa after 18 hrs by broth microdilution method
# [3] = tested on: Staphylococcus aureus; test: Antibacterial activity against Staphylococcus aureus after 18 hrs by broth microdilution method
# [4] = tested on: Bacillus subtilis; test: Antibacterial activity against Bacillus subtilis after 18 hrs by broth microdilution method
Structure (SMILES),MIC50 [1],MIC50 [2],MIC50 [3],MIC50 [4]
CSC(=S)N[C@H]1CCOC1=O,17.6 µg/mL,31.9 µg/mL,> 128 µg/mL,> 128 µg/mL
CCCCCCSC(=S)N[C@H]1CCOC1=O,> 128 µg/mL,> 128 µg/mL,> 128 µg/mL,> 128 µg/mL
O=C(CSC(=S)N[C@H]1CCOC1=O)Nc1ccccc1Cl,> 128 µg/mL,> 128 µg/mL,5.62 µg/mL,9.63 µg/mL
CCCCSC(=S)N[C@H]1CCOC1=O,> 128 µg/mL,44.6 µg/mL,> 128 µg/mL,> 128 µg/mL
O=C(CSC(=S)N[C@H]1CCOC1=O)Nc1ccc(Cl)cc1,> 128 µg/mL,> 128 µg/mL,3.5 µg/mL,> 128 µg/mL
Cc1ccc(NC(=O)CSC(=S)N[C@H]2CCOC2=O)cc1,30.6 µg/mL,63.8 µg/mL,3.49 µg/mL,> 128 µg/mL
CCSC(=S)N[C@H]1CCOC1=O,25.2 µg/mL,34.6 µg/mL,> 128 µg/mL,> 128 µg/mL
O=C(CSC(=S)N[C@H]1CCOC1=O)Nc1ccc(Cl)cc1Cl,21 µg/mL,> 128 µg/mL,4.9 µg/mL,5.6 µg/mL
Cc1cccc(NC(=O)CSC(=S)N[C@H]2CCOC2=O)c1C,> 128 µg/mL,> 128 µg/mL,> 128 µg/mL,> 128 µg/mL
COc1ccc(NC(=O)CSC(=S)N[C@H]2CCOC2=O)cc1,54.2 µg/mL,> 128 µg/mL,9.52 µg/mL,> 128 µg/mL
O=C(CSC(=S)N[C@H]1CCOC1=O)Nc1cccc([N+](=O)[O-])c1,12.8 µg/mL,59.9 µg/mL,8.67 µg/mL,6.29 µg/mL
C[C@H]1COc2c(N3CCN(C)CC3)c(F)cc3c(=O)c(C(=O)O)cn1c23.C[C@H]1COc2c(N3CCN(C)CC3)c(F)cc3c(=O)c(C(=O)O)cn1c23.O [LEVOFLOXACIN],< 0.25 µg/mL,< 0.25 µg/mL,< 0.25 µg/mL,< 0.25 µg/mL
O=C(CSC(=S)N[C@H]1CCOC1=O)Nc1cccc(Cl)c1,> 128 µg/mL,> 128 µg/mL,> 128 µg/mL,> 128 µg/mL
O=C(CSC(=S)N[C@H]1CCOC1=O)Nc1cccc(C(F)(F)F)c1,> 128 µg/mL,> 128 µg/mL,5.81 µg/mL,1.44 µg/mL
Cc1cccc(NC(=O)CSC(=S)N[C@H]2CCOC2=O)c1,> 128 µg/mL,37.2 µg/mL,> 128 µg/mL,> 128 µg/mL
CCCCCCCCCCCCCCSC(=S)N[C@H]1CCOC1=O,67.8 µg/mL,> 128 µg/mL,> 128 µg/mL,> 128 µg/mL
CCCCCCCCSC(=S)N[C@H]1CCOC1=O,> 128 µg/mL,> 128 µg/mL,> 128 µg/mL,> 128 µg/mL
CCCCCCCCCCCCSC(=S)N[C@H]1CCOC1=O,> 128 µg/mL,> 128 µg/mL,50.6 µg/mL,> 128 µg/mL
O=C(CSC(=S)N[C@H]1CCOC1=O)Nc1ccccc1F,40.5 µg/mL,> 128 µg/mL,6.53 µg/mL,> 128 µg/mL
O=C(CSC(=S)N[C@H]1CCOC1=O)Nc1ccccc1,> 128 µg/mL,48.5 µg/mL,7.72 µg/mL,47.9 µg/mL
O=C(CSC(=S)N[C@H]1CCOC1=O)Nc1ccc(Br)cc1,24.9 µg/mL,54.5 µg/mL,3.69 µg/mL,30.2 µg/mL
